Results on 1 compound are retold here after US20250263404A1, “AMINOPYRIDINES AS ACTIVATORS OF PI3 KINASE” (UCL Business Ltd, priority 2021, published 2025).

Series [1] has as its system PI3Kα-WT and PI3Kα-KO MEFs. Description: CellTiter-Glo ATP content in MEFs. In kind it is cell-based, mouse. As for the experimental part:
A role for PI3Kα in activation of anabolic metabolism, cell cycle progression and cell proliferation is well-established.
MEFs were seeded at 5000 cells per well in 96-well plates in DMEM supplemented with 10% FBS and 1% P/S, and allowed to attach overnight. The next day, cells were serum starved for 4 h prior to compound treatment in fresh serum-free DMEM. Compounds solubilised in DMSO were diluted 1:2 in a 12-point concentration response curve in DMSO. Intermediate plates were prepared by transferring 4 μl of compounds in DMSO into 96 μl of serum-free DMEM media. This was then used to treat cell plates by transferring 12.5 μl of solution from the intermediate plate into 87.5 μl of serum-free DMEM in the cell plates. […] Cell plates were incubated for 24 h, 48 h or 72 h at 37° C., 5% CO2, followed by determination of cell survival using the CellTiter-Glo® reagent according to manufacturer's instructions (Promega #G7571). Endpoint luminescence was measured using CLARIOstar (BMG). Compound data were analyzed using GraphPad Prism 8.
(ATP-based viability assays read luminescence as a measure of living cells.)

The target in another series is T1, PI3Kδ (Homo sapiens, UniProt O00329).
T1 construct: Full-length p110β/p85α and p110δ/p85α were cloned and expressed in a similar manner; Strep-tag followed by TEV protease site (N, cleaved yes); made in house; host or cells: Spodoptera frugiperda Sf9 (plasmids OP833 and OP809)
Description: ADP-Glo in vitro lipid kinase assay, PI3Kδ. In kind it is biochemical. As to the method: The effect of 1938 on the in vitro lipid kinase activity of p85α in complex with p110α, p110β or p110δ (further referred to as PI3Kα, PI3Kβ and PI3Kδ) was tested. As a positive control, a bis-phosphorylated phosphopeptide (a PDGF-receptor-derived peptide phosphorylated on Tyr-740 and Tyr-751, hereafter referred to as pY peptide) was used to mimic engagement of the p85α SH2 domains with tyrosine-phosphorylated peptides in membrane-bound receptors and adaptor proteins, known to activate the PI3Kα complex.
Kinase reactions were performed with ADP-Glo kinase assay kit (Promega Corporation). The enzyme, substrate and compounds were diluted in reaction buffer (20 mM HEPES, 50 mM NaCl, 50 mM KCl, 3 mM MgCl2, 1 mM EGTA, 1 mM TCEP, pH 7.4). Final concentrations of PI3Kα and PI3Kδ used were 25 nM and 50 nM for PI3Kβ. […]
For compound profiling, the reaction mixture contained 2 μl PI3K enzyme, 2 μl compound and/or pY and 2 μl of liposome substrate mixed with ATP. […] Luminescence was read using a Sense (Hidex) plate reader. […]
For characterisation of the effects of 1938 on in vitro PI3K enzymology, all reactions were performed at room temperature with 384 white-polystyrene plates (Corning #3574). […] For enzyme kinetic calculations, data was expressed as velocity (pmol of ADP generated/sec). […]
A general note: ADP-Glo first removes unused ATP, then detects ADP through luciferase.

A further series has as its system PI3Kα-WT MEFs. Description: Cell number by crystal violet staining in MEFs. The following applies: 72 h. In kind it is cell-based, mouse. As for the experimental part:
MEFs were seeded at 5000 cells per well in 96-well plates in DMEM supplemented with 10% FBS and 1% P/S, and allowed to attach overnight. The next day, cells were serum-starved for 5 h prior to compound addition in fresh serum-free DMEM. After different time points, cells were rapidly washed with distilled H2O before fixed and stained in a solution of 0.5% crystal violet (Sigma-Aldrich cat #C0775) in 20% methanol (v:v) as described (Feoktistova, M. et al. Cold Spring Harb Protoc 2016, pdb prot087379 (2016). Briefly, after 20 min incubation at room temperature on a rocking platform, fixed and stained cells were washed 3 times with distilled H2O and plates air-dried overnight. 200 μl methanol was next added to each well and the plates were incubated at room temperature for 20 min on a bench rocker, followed by measurement of optical density at 570 with a plate reader.

T1 sequence (O00329 whole entry, species assumed): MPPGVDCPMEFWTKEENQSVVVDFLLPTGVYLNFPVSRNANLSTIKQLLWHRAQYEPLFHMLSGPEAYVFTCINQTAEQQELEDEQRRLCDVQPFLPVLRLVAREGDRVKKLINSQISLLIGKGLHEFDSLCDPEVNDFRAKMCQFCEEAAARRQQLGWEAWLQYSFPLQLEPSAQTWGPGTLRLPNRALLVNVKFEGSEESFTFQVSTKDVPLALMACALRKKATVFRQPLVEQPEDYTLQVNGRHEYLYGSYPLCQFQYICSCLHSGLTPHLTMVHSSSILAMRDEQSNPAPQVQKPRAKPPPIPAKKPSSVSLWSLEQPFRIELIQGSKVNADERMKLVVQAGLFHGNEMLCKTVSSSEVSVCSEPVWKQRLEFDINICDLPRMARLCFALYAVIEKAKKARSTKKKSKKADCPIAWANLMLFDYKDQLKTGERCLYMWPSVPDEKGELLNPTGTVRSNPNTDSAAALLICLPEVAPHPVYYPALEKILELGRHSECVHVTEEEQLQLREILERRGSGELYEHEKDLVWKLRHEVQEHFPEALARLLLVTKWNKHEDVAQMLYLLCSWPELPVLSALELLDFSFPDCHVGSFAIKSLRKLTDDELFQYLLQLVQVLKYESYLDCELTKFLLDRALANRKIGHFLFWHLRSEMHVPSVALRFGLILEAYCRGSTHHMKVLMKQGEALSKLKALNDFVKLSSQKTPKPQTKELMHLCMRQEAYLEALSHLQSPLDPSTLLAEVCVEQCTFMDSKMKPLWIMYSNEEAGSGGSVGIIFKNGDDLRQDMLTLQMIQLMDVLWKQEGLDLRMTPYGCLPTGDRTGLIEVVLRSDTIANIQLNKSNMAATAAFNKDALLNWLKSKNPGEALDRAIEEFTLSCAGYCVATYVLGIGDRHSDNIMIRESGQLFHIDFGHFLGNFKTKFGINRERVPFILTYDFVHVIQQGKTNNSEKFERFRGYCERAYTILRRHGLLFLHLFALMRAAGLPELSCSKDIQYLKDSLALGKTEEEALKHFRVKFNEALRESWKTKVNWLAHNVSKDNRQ
T1 sequence (P27986 whole entry partner, species assumed): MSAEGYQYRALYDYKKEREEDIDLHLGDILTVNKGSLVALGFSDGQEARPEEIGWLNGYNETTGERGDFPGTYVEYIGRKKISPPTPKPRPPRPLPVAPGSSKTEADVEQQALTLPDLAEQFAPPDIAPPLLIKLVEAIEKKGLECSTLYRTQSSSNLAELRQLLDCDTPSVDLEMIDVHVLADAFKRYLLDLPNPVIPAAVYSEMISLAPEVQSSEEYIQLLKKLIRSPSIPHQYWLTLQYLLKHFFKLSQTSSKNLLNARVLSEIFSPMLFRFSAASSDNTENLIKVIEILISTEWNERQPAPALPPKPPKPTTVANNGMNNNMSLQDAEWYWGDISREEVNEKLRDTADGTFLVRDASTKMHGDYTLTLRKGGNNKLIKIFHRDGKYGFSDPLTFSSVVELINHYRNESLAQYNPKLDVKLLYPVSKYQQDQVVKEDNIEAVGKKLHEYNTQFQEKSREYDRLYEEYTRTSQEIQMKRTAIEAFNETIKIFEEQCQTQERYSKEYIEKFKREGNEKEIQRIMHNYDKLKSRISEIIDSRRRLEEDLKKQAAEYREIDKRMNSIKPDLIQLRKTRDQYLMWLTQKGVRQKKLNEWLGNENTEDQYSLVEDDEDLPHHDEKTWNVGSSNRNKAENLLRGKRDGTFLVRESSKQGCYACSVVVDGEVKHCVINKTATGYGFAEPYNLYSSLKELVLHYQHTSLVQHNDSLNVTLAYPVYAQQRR

On to `CCN1CCN(c2ccc(Nc3cc(Nc4cccc5c4N(C(C)=O)CC5)ccn3)cc2)CC1` [Example 1938], for which, in series [1] (24 h incubation, PI3Kα-WT and PI3Kα-KO MEFs), the “concentrations that decreased ATP levels (PI3Kα-independent effects)” value was more than 7.5 µM. Moreover, in series [1] (48 h and 72 h incubation), the “concentrations with non-PI3Kα-dependent effects” value is not below 2 µM. Further, the EC50 in series [1] (Mus musculus, PI3Kα-WT MEFs, CellTiterGlo, read-out: EC50 of increase in metabolic activity (ATP content)) was approximately 500 nM. Besides, the “effect on in vitro lipid kinase activity of PI3Kδ” value at PI3Kδ was “not PI3Kβ or PI3Kδ”. Moreover, in the series on PI3Kα-WT MEFs, the “cell number (crystal violet staining)” value is “an increase in cell number”.

In general, EC50 refers to the concentration needed to bring the measured effect to its halfway point.
